Experimental data taken from article PMC5478727, “A Novel Small Molecule GDNF Receptor RET Agonist, BT13, Promotes Neurite Growth from Sensory Neurons in Vitro and Attenuates Experimental Neuropathy in the Rat” (Frontiers in Pharmacology, 2017).
Several values for one entry are separate records, joined by “and”; a condition that tells them apart may be missing. Equal values may be shown once.

Legend:
[1] = biological target: T1, serotonin receptor 5-HT2C (Homo sapiens, UniProt P28335); experiment: CEREP 5-HT2C (h) (agonist radioligand); format: binding; details: reference compound
T1 construct: purchased CEREP (contract assay) 0137, 1003
T1 sequence (P28335 33-458): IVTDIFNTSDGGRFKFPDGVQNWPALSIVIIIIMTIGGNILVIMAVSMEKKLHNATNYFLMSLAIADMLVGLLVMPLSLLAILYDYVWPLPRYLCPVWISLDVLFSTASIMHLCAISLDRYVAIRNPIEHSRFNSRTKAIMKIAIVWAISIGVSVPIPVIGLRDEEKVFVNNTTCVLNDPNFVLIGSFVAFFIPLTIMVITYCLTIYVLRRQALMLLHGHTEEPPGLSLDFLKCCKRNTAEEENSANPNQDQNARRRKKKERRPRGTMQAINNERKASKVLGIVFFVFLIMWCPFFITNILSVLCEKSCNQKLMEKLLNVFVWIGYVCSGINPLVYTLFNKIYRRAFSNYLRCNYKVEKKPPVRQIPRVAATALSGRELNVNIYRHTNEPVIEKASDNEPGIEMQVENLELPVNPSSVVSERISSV

[2] = test system: adult rat lumbar DRG sensory neurons; experiment: Neurite outgrowth from cultured DRG neurons; format: cell-based; details: for effect of pre-treatment on BT13-stimulated neurite outgrowth: LY294002 50 μM; for effect of pre-treatment on BT13-stimulated neurite outgrowth / block of BT13-stimulated neurite outgrowth, maximum length, mean difference / block of BT13-stimulated neurite outgrowth, total length, mean difference: PD98059 50 μM, SU6656 2 μM; for block of BT13-stimulated neurite outgrowth, maximum length, mean difference / block of BT13-stimulated neurite outgrowth, total length, mean difference: pre-treatment with inhibitor: LY294002 50 μM
Description: Cultured lumbar DRG (L3–L5) neurons were prepared using a published method (O'Mullane et al., [2013]). After plating onto poly-L-ornithine (5 μg/ml)/laminin (5 μg/ml) coated coverslips for 1 h, DRG neurons were cultured for 24–30 h in fresh Neurobasal A/B27. GFLs, BT13, NGF, and vehicle control were added at the start of this period for a 24–30 h treatment, except when preceded by pre-treatment (1 h) with inhibitors (50 μM LY294002; 2 μM SU6656, […]; Biomol Research Laboratories, Plymouth Meeting, PA, USA). DRG neurons were then fixed (4% paraformaldehyde) and processed for immunocytochemistry with 1:200 Mouse anti-β III tubulin/AlexaFluor 594 (Sigma-Aldrich Cat# T8660 RRID:AB_477590) and 1:5,000 rabbit anti-calcitonin gene-related peptide/AlexaFluor 488 (Sigma-Aldrich Cat# C8198 RRID:AB_259091) and DAPI for nuclear staining (0.5 μg/ml, Molecular Probes). Image analysis of multichannel 12 bit Zeiss .ZVI or .TIF files (captured with a Zeiss Imager.M1/MRm camera/Zen software; Carl Zeiss Australia, North Ryde, NSW, Australia) was then performed by a researcher blinded to the experimental condition. Neurite initiation was measured by a single parameter (proportion of neurons with neurites longer than the soma diameter). Neurite elongation was measured by batch processing (HCA-Vision software; CSIRO Mathematical and Information Sciences, North Ryde, NSW, Australia) to obtain four parameters—Root number: number of primary neurites; Maximum length: length of longest neurite; Branch points: number of neurite branch points; and Total length: sum of neurite lengths (Kalous and Keast, [2010]; Kalous et al., [2012]). The number of neurons of each immunocytochemical class counted on each coverslip (technical replicates) was 50 for neurite initiation and 20 for neurite elongation. A minimum of three cultures from different rats (biological replicates) were analyzed for each treatment group.

[3] = biological target: T1, serotonin receptor 5-HT2C; experiment: CEREP 5-HT2C (h) (antagonist radioligand); format: binding; details: reference compound
[4] = test system: rats with spinal nerve ligation (L5/L6); experiment: Spinal nerve ligation (Chung's) model of experimental neuropathy, von Frey test
neurotensin receptor NT = experiment: CEREP NT (non-selective; agonist radioligand); format: binding; details: reference compound, Cat. No. 0465
[5] = test system: dorsal root ganglia neurons of SNL rats; experiment: Immunohistochemistry of DRG neuronal markers in rats with spinal nerve ligation; format: in vivo, rat; details: IHC
Excerpt: DRGs from rats with spinal nerve ligation treated with BT13 or vehicle were embedded in paraffin and sectioned (7 μm thickness). Sections were deparaffinized, subjected to citrate or basic antigen-retrieval procedure and probed with IB4-Alexa 488 [1:200; IB4-Alexa488, Cat# IB4 (isolectin Griffonia simplicifolia IB4) RRID:AB_2314664] and antibodies against calcitonin gene-related peptide (CGRP; 1:10,000, Peninsula Laboratory, Cat# T-4032 RRID:AB_2313775), NPY (1:10,000, Peninsula Laboratory, Cat# T-4070.0050 RRID:AB_518504), pErk1/2 (1:300, Cell Signaling, Cat# 4370L RRID:AB_2297462), pS6 (1:300, Cell Signaling, Cat# 4858L RRID:AB_1031194) or RET [1:100, kind gift of Dr. E. Kramer, Center for Molecular Neurobiology, University Medical Center Hamburg-Eppendorf, Hamburg, Germany (Meka et al., [2015])] and corresponding secondary antibodies conjugated with fluorophores (Donkey Anti-Rabbit Alexa Fluor 647 conjugate, Cat# A31573 RRID:AB_162544; Donkey anti-Mouse Alexa Fluor 647 conjugate, Cat# A-31571 RRID:AB_2536181; Goat anti-Guinea Pig, Alexa Fluor 568 conjugate, Cat# A-11075 RRID:AB_2534119, Thermo Fisher Scientific, USA) or horse radish peroxidase (VECTASTAIN Elite ABC-Peroxidase Kit antibody, Vector Laboratories, CA, USA, Cat# PK-6101 RRID:AB_2336820). In the latter case, to reveal staining slides were treated with ABC and DAB staining kits (Vector Laboratories, CA, USA) according to the manufacturer's instructions. Sections were co-stained with guinea pig anti-PGP9.5 antibodies (Abcam Cat# ab10410 RRID:AB_297150) whenever possible. Nuclei were visualized using hematoxylin or DAPI dyes. Sections were mounted in Immu-Mount (Thermo Scientific, Cat#9990402) or Coverquick 2000 (Q PATH, Cat#05547530) mounting media and images were taken with fluorescent (Zeiss Imager M2 Axio, Carl Zeiss, Germany) or bright-field (Olympus BX-61, Olympus, Japan) microscopes. Neurons were counted for two sections per DRG and the number of cell profiles with nuclei positive for each specific marker was normalized to the total number of the neurons (identified by PGP9.5 staining or by morphology) per section. Ret-positive neurons were clustered by size using Matlab software R2014b (Mathworks, USA). Statistical analysis was performed using data from three to six individual animals. To obtain sufficient sample size, the data from animals treated with 20 and 25 mg/kg of BT13 were combined.

GFRα1/RET = biological target: T2, GFRα1/RET (Homo sapiens, UniProt P07949); parameters: method as in Sidorova et al., 2010; details: GDNF in this assay, ref Sidorova et al., 2010, cited from earlier work
T2 construct: full-length human RET (long isoform) in pCR3.1; expressed in transfected cells; host or cells: MG87 murine fibroblasts (MG87RET + PathDetect Elk-1 + GFRα1)

[6] = gabapentin single oral dose 100 mg/kg on day 12, 1 h before test

T2 sequence (P07949 29-1114): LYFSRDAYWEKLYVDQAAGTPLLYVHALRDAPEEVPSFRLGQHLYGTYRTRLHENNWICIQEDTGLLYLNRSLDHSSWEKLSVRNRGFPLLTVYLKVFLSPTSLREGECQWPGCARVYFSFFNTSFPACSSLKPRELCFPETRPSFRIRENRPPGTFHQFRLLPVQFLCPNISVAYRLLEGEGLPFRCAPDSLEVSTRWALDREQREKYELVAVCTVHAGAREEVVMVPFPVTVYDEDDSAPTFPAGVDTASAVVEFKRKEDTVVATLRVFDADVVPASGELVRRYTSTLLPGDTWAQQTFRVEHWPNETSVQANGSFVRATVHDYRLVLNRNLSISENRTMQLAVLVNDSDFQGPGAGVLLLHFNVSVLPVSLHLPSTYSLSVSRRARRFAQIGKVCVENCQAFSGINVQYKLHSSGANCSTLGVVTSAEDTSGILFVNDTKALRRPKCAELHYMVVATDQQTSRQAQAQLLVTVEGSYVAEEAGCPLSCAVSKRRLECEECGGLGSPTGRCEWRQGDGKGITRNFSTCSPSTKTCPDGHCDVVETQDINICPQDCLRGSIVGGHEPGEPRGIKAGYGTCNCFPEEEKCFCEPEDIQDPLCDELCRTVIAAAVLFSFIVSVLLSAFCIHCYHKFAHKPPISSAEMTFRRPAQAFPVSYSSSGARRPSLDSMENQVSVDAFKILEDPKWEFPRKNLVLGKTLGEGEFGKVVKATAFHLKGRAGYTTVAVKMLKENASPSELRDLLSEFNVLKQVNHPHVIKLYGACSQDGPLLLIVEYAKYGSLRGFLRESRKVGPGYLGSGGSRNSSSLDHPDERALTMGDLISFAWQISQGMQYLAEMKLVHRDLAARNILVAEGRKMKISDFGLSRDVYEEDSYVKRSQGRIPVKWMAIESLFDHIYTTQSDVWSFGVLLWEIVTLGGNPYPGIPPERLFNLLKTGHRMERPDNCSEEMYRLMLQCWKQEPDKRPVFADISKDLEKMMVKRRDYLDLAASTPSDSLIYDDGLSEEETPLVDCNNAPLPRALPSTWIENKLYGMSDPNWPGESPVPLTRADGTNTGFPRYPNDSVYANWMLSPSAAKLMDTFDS

COc1cc(CC(C)N)c(OC)cc1I (racemic) [(±)DOI]
IC50 ([1]; Cat. No. 1003): 0.46 nM | Ki ([1]; Cat. No. 1003, read-out: Ki Ref): 0.42 nM

O=c1cc(N2CCOCC2)oc2c(-c3ccccc3)cccc12 [LY294002, reference compound]
effect of pre-treatment on BT13-stimulated neurite outgrowth [2]: completely blocked | block of BT13-stimulated neurite outgrowth, branch points, mean difference ([2]; pre-treatment with LY294002 50 μM, BT13 100 ng/ml): 22 ± 5 | block of BT13-stimulated neurite outgrowth, maximum length, mean difference ([2]; BT13 100 ng/ml): 100.7 ± 13 μm | block of BT13-stimulated neurite outgrowth, total length, mean difference ([2]; BT13 100 ng/ml): 817 ± 207 μm

COc1cccc(-c2cc(=O)c3ccccc3o2)c1N [PD98059, reference compound]
effect of pre-treatment on BT13-stimulated neurite outgrowth [2]: completely blocked | block of BT13-stimulated neurite outgrowth, maximum length, mean difference ([2]; BT13 100 ng/ml): 78 ± 17 μm | block of BT13-stimulated neurite outgrowth, total length, mean difference ([2]; BT13 100 ng/ml): 449 ± 113 μm

COc1cc(OC)c(C(=O)CCCCN2CCC3(CC2)NC(=O)NC3=O)cc1NS(=O)(=O)c1ccc(C(F)(F)F)cc1 [RS 102221]
IC50 ([3]; Cat. No. 0137): 3 nM | Ki ([3]; Cat. No. 0137, read-out: Ki Ref): 0.99 nM

CN(C)S(=O)(=O)c1ccc2c(c1)/C(=C/c1cc3c([nH]1)CCCC3)C(=O)N2 [SU6656, reference compound]
effect of pre-treatment on BT13-stimulated neurite outgrowth [2]: completely blocked | block of BT13-stimulated neurite outgrowth, maximum length, mean difference ([2]; BT13 100 ng/ml): 116 ± 53 μm | block of BT13-stimulated neurite outgrowth, total length, mean difference ([2]; BT13 100 ng/ml): 1098 ± 343 μm

NCC1(CC(=O)O)CCCCC1 [gabapentin, reference compound]
contralateral PWT [4, 6]: 26 ± 0.0 | ipsilateral PWT [4, 6]: 24.2 ± 1.83

Neurotensin
IC50 (neurotensin receptor NT): 2.9 nM | Ki (neurotensin receptor NT; read-out: Ki Ref): 2.7 nM

B1: artemin (protein, UniProt Q5T4W7 108-220, looked up)
Artemin: AGGPGSRARAAGARGCRLRSQLVPVRALGLGHRSDELVRFRFCSGSCRRARSPHDLSLASLLGAGALRPPPGSRPVSQPCCRPTRYEAVSFMDVNSTWRTVDRLSATACGCLG
notes: GDNF family ligand protein from PeproTech
reduction in the number of RET-positive cells in DRGs after SNL ([5]; day 12 after SNL): restored | number of large RET-positive neurons in lesioned DRGs ([5]; size above 1,000 μm^2, vs contralateral): increased | number of small RET-positive neurons in lesioned DRGs ([5]; size below 1,000 μm^2, vs contralateral): decreased | neurite initiation or extension ([2]; CGRP-negative neurons, NGF 10 ng/ml, ARTN 30 ng/ml, BT13 100 ng/ml): no effect | neurite elongation significantly increased ([2]; CGRP-positive neurons, ARTN 30 ng/ml): not | neurite initiation ([2]; CGRP-positive neurons, NGF 10 ng/ml, ARTN 30 ng/ml, BT13 100 ng/ml, overnight): significantly increased | proportion of DRG neurons that expressed CGRP in culture ([2]; NGF 10 ng/ml, ARTN 30 ng/ml, BT13 100 ng/ml): did not alter | increase of ipsilateral paw withdrawal threshold (PWT) ([4]; ARTN 0.5 mg/kg s.c. on days 1, 3, 5, 8, 10, 12, von Frey, day 12 post-surgery): 2.6 times

B2: glial cell line-derived neurotrophic factor (protein, UniProt P39905 78-211, looked up)
Glial cell line-derived …: SPDKQMAVLPRRERNRQAAAANPENSRGKGRRGQRGKNRGCVLTAIHLNVTDLGLGYETKEELIFRYCSGSCDAAETTYDKILKNLSRNRRLVSDKVGQACCRPIAFDDDLSFLDDNLVYHILRKHSAKRCGCI
notes: as for B1
efficacy, fold induction of luciferase above baseline (GFRα1/RET): 84.9 fold and 50–100 fold | EC50 (GFRα1/RET; read-out: EC50, luciferase activation): 1.2 nM
